The values that follow come from patent publication US9999650B2, “Peptide and peptidomimetic inhibitors” (Ra Pharmaceuticals, Inc., priority 2012, dated 2018).

Numbered stars: 1 amine (or outer) side, 2 acyl side, 3 side chain; on linkers, the order of the positions; unused ones are H or OH. Bridge positions count the residues as written; N and C are the ends. Square brackets hold non-standard residues; d marks the D form. Peptide text beside a SMILES is read from it. Ala(1H-tetrazol-5-yl) = N[C@@H](Cc1nnn[nH]1)C(=O)O; Trp(5-Cl) = N[C@@H](Cc1c[nH]c2ccc(Cl)cc12)C(=O)O; Phe(4-Cl) = N[C@@H](Cc1ccc(Cl)cc1)C(=O)O; mXylylene = c1cc(C[*:1])cc(C[*:2])c1; NMeY = CN[C@@H](Cc1ccc(O)cc1)C(=O)O; NMeI = CC[C@H](C)[C@H](NC)C(=O)O; NMeT = CN[C@H](C(=O)O)[C@@H](C)O; X2 = O=C(Cc1cccc(C[*:2])c1)[*:1]; dPhg = N[C@@H](C(=O)O)c1ccccc1; Chg = N[C@H](C(=O)O)C1CCCCC1; Pen = CC(C)(S)[C@H](N)C(=O)O; Tle = CC(C)(C)[C@H](N)C(=O)O; NMeS = CN[C@@H](CO)C(=O)O; NMeA = CN[C@@H](C)C(=O)O; Nva = CCC[C@H](N)C(=O)O; Aib = CC(C)(N)C(=O)O; Mpa = O=C(O)CCS

The assay deals with T1, human plasma kallikrein (Homo sapiens, UniProt P03952).
T1 construct: purchased Enzyme Research Laboratories HPKa 1303
T1 sequence (P03952 20-390 limits assumed): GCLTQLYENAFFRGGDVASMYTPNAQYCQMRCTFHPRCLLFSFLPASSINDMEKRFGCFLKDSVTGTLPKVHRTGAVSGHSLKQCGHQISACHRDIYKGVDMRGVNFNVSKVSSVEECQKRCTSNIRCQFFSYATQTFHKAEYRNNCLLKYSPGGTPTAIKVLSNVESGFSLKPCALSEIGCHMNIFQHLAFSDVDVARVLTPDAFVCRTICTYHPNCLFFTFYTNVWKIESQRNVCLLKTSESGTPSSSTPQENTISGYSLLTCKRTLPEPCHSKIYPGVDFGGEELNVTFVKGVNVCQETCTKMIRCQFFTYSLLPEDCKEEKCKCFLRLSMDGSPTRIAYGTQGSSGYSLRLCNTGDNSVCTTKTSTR
T1 sequence (P03952 391-638 limits assumed): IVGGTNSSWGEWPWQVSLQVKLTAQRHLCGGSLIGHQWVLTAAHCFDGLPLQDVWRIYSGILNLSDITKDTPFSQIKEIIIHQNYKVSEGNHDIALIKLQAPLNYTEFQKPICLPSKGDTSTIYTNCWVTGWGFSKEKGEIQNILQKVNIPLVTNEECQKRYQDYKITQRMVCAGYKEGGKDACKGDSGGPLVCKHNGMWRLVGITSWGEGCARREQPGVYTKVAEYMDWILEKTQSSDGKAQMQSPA
Kind of assay: Enzyme inhibition assay (fluorogenic substrate H-Pro-Phe-Arg-AMC). Type of assay: biochemical. The settings on record: Kallikrein inhibitory activity; 1 nM activated human kallikrein, 500 μM H-Pro-Phe-Arg-AMC, 1 hour room temperature; read-out: Avg. IC50. As to the method: Activated human plasma kallikrein (Enzyme Research Laboratories, HPKa 1303) was reacted with H-Pro-Phe-Arg-7-amido-4-methylcoumarin (H-Pro-Pre-Arg-AMC) (a fluorogenic substrate for plasma as well as pancreatic and urinary kallikreins; Bachem I-1295) and candidate inhibitory peptides to determine the IC50 of the inhibitor.
Ten 8-fold serial dilutions of peptides (10 mM DMSO stocks) were performed in DMSO and then added to TCNB (50 mM Tris-HCl pH 7.2, 150 mM NaCl, 10 mM CaCl2, 0.05% Brij-35) and sonicated. 50 μL of the peptide dilutions were added to microtitre plates (96 well, black non-binding surface, Corning, 3650) and incubated for 5 minutes at room temperature with 4 nM activated human kallikrein (final concentration after addition of fluorogenic substrate: 1 nM). The samples were then incubated for 1 hour at room temperature with 2 mM H-Pro-Phe-Arg-AMC (final concentration 500 μM). Relative Fluorescence Units (RFU) were measured at excitation/emission 360 nm/460 nm by a SpectraMax M3.
In the case of `CC(C)(C)[C@H](NC(=O)[C@H](CCCNC(=N)N)NC(=O)[C@@H]1COCc2cn(nn2)CCCCC(=O)N2CCC[C@H]2C(=O)N[C@@H](C2CCCCC2)C(=O)N1)C(N)=O` [Compound R2252], the IC50 (in general, the concentration that inhibits the measured activity by half) is more than 100000 nM.

Take `CC(=O)N[C@@H](CS)C(=O)N[C@@H](CC(N)=O)C(=O)N[C@@H](Cc1ccc(O)cc1)C(=O)N[C@@H](Cc1c[nH]c2ccccc12)C(=O)N[C@@H](CO)C(=O)N1CCC[C@@H]1C(=O)N[C@@H](Cc1c[nH]c2ccccc12)C(=O)N[C@H](C(=O)N[C@@H](C)C(=O)N[C@@H](CS)C(N)=O)[C@@H](C)O` [Compound R2229, Ac-CNYWSpWTAC-NH2] (Ac-CNYWS[dP]WTAC-NH2): the IC50 was more than 14300 nM.

Take `CC[C@@H](C)[C@@H]1NC(=O)[C@@H]2CCCN2C(=O)CCCCCCC/C=C/C[C@@H](C(=O)N[C@@H](CCCNC(=N)N)C(=O)N[C@H](C(N)=O)C(C)C)NC1=O` [Compound R2244]: the IC50 was more than 50000 nM.

Turning to `CC(=O)N[C@@H](CS)C(=O)N[C@@H](CC(N)=O)C(=O)N[C@@H](Cc1ccc(O)cc1)C(=O)N[C@@H](Cc1c[nH]c2ccccc12)C(=O)N[C@@H](CO)C(=O)N1CCC[C@H]1C(=O)N[C@@H](Cc1c[nH]c2ccccc12)C(=O)N[C@H](C(=O)N(C)[C@@H](C)C(=O)N[C@@H](CS)C(N)=O)[C@@H](C)O` [Compound R2234, Ac-CNYWSPWT-nMeA-C-NH2] (Ac-CNYWSPWT[NMeA]C-NH2), the IC50 is 2.7 nM.

As to “Ac-ANYWSPWTAA-NH2 [Compound R2145, Ac-ANYWSPWTAA-NH2]”, the IC50 was determined as 58.8 nM.

Turning to `CC(=O)N[C@@H](CS)C(=O)N[C@@H](CC(N)=O)C(=O)N[C@@H](Cc1ccc(O)cc1)C(=O)N[C@@H](Cc1c[nH]c2ccccc12)C(=O)N[C@H](CO)C(=O)N1CCC[C@H]1C(=O)N[C@@H](Cc1c[nH]c2ccccc12)C(=O)N[C@H](C(=O)N[C@@H](C)C(=O)N[C@@H](CS)C(N)=O)[C@@H](C)O` [Compound R2230, Ac-CNYWsPWTAC-NH2] (Ac-CNYW[dS]PWTAC-NH2), the IC50 was more than 6580 nM.

Regarding `CC(C)(C)[C@H](NC(=O)[C@H](Cc1c[nH]c2ccc(Cl)cc12)NC(=O)[C@@H]1CSCc2cccc(c2)CSCCC(=O)N2CCC[C@H]2C(=O)N[C@H](c2ccccc2)C(=O)N1)C(N)=O` [Compound R2210, [mXylyl(1,4)](des-NH2)C-P-(D-Phg)-C-5-C1-Trp-Tbg-NH2] ([Mpa]P[dPhg]C[Trp(5-Cl)][Tle]-NH2; linker 1-4 via mXylylene), the IC50 was more than 75000 nM.

For the molecule `CC[C@H](C)[C@H](NC(=O)[C@H](CO)NC(=O)[C@H](CCC(=O)O)NC(=O)[C@H](CS)NC(=O)[C@@H](N)CCSC)C(=O)N[C@@H](CS)C(=O)N[C@@H](CCCNC(=N)N)C(=O)N[C@H](C(N)=O)C(C)C` [Compound R2007, MCESICRV-NH2] (H-MCESICRV-NH2; N-terminus assumed), the half-inhibitory concentration (IC50) worked out at 2000 nM.

With `CC(=O)N[C@@H](CS)C(=O)N[C@@H](CC(N)=O)C(=O)N[C@@H](Cc1ccc(O)cc1)C(=O)N[C@@H](Cc1c[nH]c2ccccc12)C(=O)N[C@@H](C)C(=O)N1CCC[C@H]1C(=O)N[C@@H](Cc1c[nH]c2ccccc12)C(=O)N[C@H](C(=O)N[C@@H](CCC(=O)O)C(=O)N[C@@H](CS)C(N)=O)[C@@H](C)O` [Compound R2131, Ac-CNYWAPWTEC-NH2] (Ac-CNYWAPWTEC-NH2), the IC50 was 127 nM.

`CSCC[C@H](N)C(=O)N[C@H]1CSCc2cccc(c2)CSC[C@@H](C(=O)N[C@@H](CO)C(=O)N[C@@H](CCCNC(=N)N)C(N)=O)NC(=O)[C@H](CCC(=O)O)NC(=O)[C@H]([C@@H](C)O)NC(=O)[C@H](Cc2c[nH]c3ccccc23)NC(=O)[C@@H]2CCCN2C(=O)[C@H](CO)NC(=O)[C@H](Cc2c[nH]c3ccccc23)NC(=O)[C@H](Cc2ccc(O)cc2)NC(=O)[C@H](CC(N)=O)NC1=O` [Compound R2003, [mXylyl(2,11)]MCNYWSPWTECSR-NH2] (H-MCNYWSPWTECSR-NH2; linker 2-11 via mXylylene): the concentration for half-maximal inhibition (IC50) turned out to be 3.1 nM.

For the molecule `CCC[C@H](N)C(=O)N[C@@H]1C(=O)N[C@@H](CCC(=O)O)C(=O)N[C@@H](CO)C(=O)N[C@@H]([C@@H](C)CC)C(=O)N[C@H](C(=O)N[C@@H](CCCNC(=N)N)C(=O)N[C@H](C(N)=O)C(C)C)CSCc2cccc(c2)CSC1(C)C` [Compound R2031, [mXylyl(2,6)]Nvl-Pen-ESICRV-NH2] (H-[Nva][Pen]ESICRV-NH2; linker 2-6 via mXylylene), the IC50 was determined as 1460 nM.

With `CC(C)(C)[C@H](NC(=O)[C@H](CCCNC(=N)N)NC(=O)[C@@H]1COc2cccc(c2)OCCCC(=O)N2CCC[C@H]2C(=O)N[C@@H](C2CCCCC2)C(=O)N1)C(N)=O` [Compound R2255], the half-maximal inhibitory concentration (IC50) is more than 25000 nM.

Regarding `CC(C)(C)[C@H](NC(=O)[C@H](CCCNC(=N)N)NC(=O)[C@@H]1CSCc2cccc(c2)CC(=O)NCC(=O)N2CCC[C@H]2C(=O)N[C@@H](C2CCCCC2)C(=O)N1)C(N)=O` [Compound R2265] (GP[Chg]CR[Tle]-NH2; linker N-4 via X2), the IC50 turned out to be 39.2 nM.

On to `CC(=O)N[C@H]1CSCc2cccc(c2)CSC[C@@H](C(N)=O)NC(=O)[C@H](C)NC(=O)[C@H]([C@@H](C)O)N(C)C(=O)[C@H](Cc2c[nH]c3ccccc23)NC(=O)[C@@H]2CCCN2C(=O)[C@H](CO)N(C)C(=O)[C@H](Cc2c[nH]c3ccccc23)NC(=O)[C@H](Cc2ccc(O)cc2)N(C)C(=O)[C@H](CC(N)=O)NC1=O` [Compound R2223, [mXylyl(1,10)]Ac-CN-nMeY-W-nMeS-PW-nMeT-AC-NH2] (Ac-CN[NMeY]W[NMeS]PW[NMeT]AC-NH2; linker 1-10 via mXylylene), for which the IC50 was more than 100000 nM.

`CC(C)(C)[C@H](NC(=O)[C@H](CCCNC(=N)N)NC(=O)[C@@H]1CSCc2cccc(c2)CC(=O)NCCC(=O)N2CCC[C@H]2C(=O)N[C@@H](C2CCCCC2)C(=O)N1)C(N)=O` [Compound R2258]: the IC50 is 498 nM.

With `CSCC[C@H](N)C(=O)N[C@@H](CS)C(=O)N[C@@H](CC(N)=O)C(=O)N[C@@H](Cc1ccc(O)cc1)C(=O)N[C@@H](Cc1c[nH]c2ccccc12)C(=O)N[C@@H](CO)C(=O)N1CCC[C@H]1C(=O)N[C@@H](Cc1c[nH]c2ccccc12)C(=O)N[C@H](C(=O)N[C@@H](CCC(=O)O)C(=O)N[C@@H](CS)C(=O)N[C@@H](CO)C(N)=O)[C@@H](C)O` [Compound R2110, MCNYWSPWTECS-NH2] (H-MCNYWSPWTECS-NH2; N-terminus assumed), the IC50 turned out to be 3.5 nM.

`CC(C)(C)[C@H](NC(=O)[C@H](CCCNC(=N)N)NC(=O)[C@@H]1CCCc2cn(nn2)CCCCC(=O)N2CCC[C@H]2C(=O)N[C@@H](C2CCCCC2)C(=O)N1)C(N)=O` [Compound R2253]: the IC50 was more than 100000 nM.

Regarding “Ac-SPWTECSA-NH2 [Compound R2120, Ac-SPWTECSA-NH2]”, the IC50 was more than 100000 nM.

Regarding `CC(C)(C)[C@H](NC(=O)[C@H](CCCNC(=N)N)NC(=O)[C@@H]1CCn2cc(nn2)CCCCC(=O)N2CCC[C@H]2C(=O)N[C@@H](C2CCCCC2)C(=O)N1)C(N)=O` [Compound R2249], the IC50 was more than 100000 nM.

Consider `CC(C)(C)[C@H](NC(=O)[C@H](Cc1ccc(Cl)cc1)NC(=O)[C@@H]1CSCc2cccc(c2)CSCCC(=O)N2CCC[C@H]2C(=O)N[C@H](c2ccccc2)C(=O)N1)C(N)=O` [Compound R2206, [mXylyl(1,4)](des-NH2)C-P-(D)Phg-C-4-Cl-Phe-Tbg-NH2] ([Mpa]P[dPhg]C[Phe(4-Cl)][Tle]-NH2; linker 1-4 via mXylylene), for which the IC50 was more than 75000 nM.

For the molecule `C[C@@H]1NC(=O)C(C)(C)NC(=O)CCSCc2cccc(c2)CSC[C@@H](C(=O)N[C@@H](CCCNC(=N)N)C(=O)O)NC(=O)[C@H](C2CCCCC2)NC1=O` [Compound R2153, [mXylyl(1,5)](des-NH2)C-Aib-A-Chg-CR-OH] ([Mpa][Aib]A[Chg]CR-OH; linker 1-5 via mXylylene), the IC50 was more than 8880 nM.

`CC(=O)N[C@@H](CS)C(=O)N[C@@H](CC(N)=O)C(=O)N(C)[C@@H](Cc1ccc(O)cc1)C(=O)N[C@@H](Cc1c[nH]c2ccccc12)C(=O)N[C@@H](CO)C(=O)N1CCC[C@H]1C(=O)N[C@@H](Cc1c[nH]c2ccccc12)C(=O)N[C@H](C(=O)N[C@@H](C)C(=O)N[C@@H](CS)C(N)=O)[C@@H](C)O` [Compound R2239, Ac-CN-nMeY-WSPWTAC-NH2] (Ac-CN[NMeY]WSPWTAC-NH2): the IC50 is more than 12500 nM.

In the case of `CC(C)(C)[C@H](NC(=O)[C@H](CCCNC(=N)N)NC(=O)[C@@H]1C/C=C/c2cccc(c2)OCCCC(=O)N2CCC[C@H]2C(=O)N[C@@H](C2CCCCC2)C(=O)N1)C(N)=O` [Compound R2262], the IC50 was more than 100000 nM.

For the molecule `CC[C@H](C)[C@@H]1NC(=O)[C@H](CO)NC(=O)[C@H](Cc2nn[nH]n2)NC(=O)[C@@H](NC(=O)[C@@H](N)CCSC)CSCc2cccc(c2)CSC[C@@H](C(=O)N[C@@H](CCCNC(=N)N)C(=O)N[C@H](C(N)=O)C(C)C)NC1=O` [Compound R2020, [mXylyl(2,6)]MC-Asp(T)-SICRV-NH2] (H-MC[Ala(1H-tetrazol-5-yl)]SICRV-NH2; linker 2-6 via mXylylene), the IC50 was found to be 13 nM.

`CC(C)(C)[C@H](NC(=O)[C@H](CCCNC(=N)N)NC(=O)[C@@H]1CSCc2cccc(c2)/C=C/CC(=O)N2CCC[C@H]2C(=O)N[C@@H](C2CCCCC2)C(=O)N1)C(N)=O` [Compound R2259]: the IC50 was determined as 1460 nM.

For the molecule `CC[C@H](C)[C@H]1C(=O)N[C@H](C(=O)N[C@@H](CCCNC(=N)N)C(=O)N[C@H](C(N)=O)C(C)C)CSCc2cccc(c2)CSC[C@H](NC(=O)[C@@H](N)CCSC)C(=O)N[C@@H](CCC(=O)O)C(=O)N[C@@H](CO)C(=O)N1C` [Compound R2026, [mXylyl(2,6)]MCES-nMeI-CRV-NH2] (H-MCES[NMeI]CRV-NH2; linker 2-6 via mXylylene), the IC50 came to 26 nM.
